According to patent US20230117592A1 (SRI International, priority 2019, published 2023):
“And” between values parts separate entries of the source, which are not always exact repeats. Equal values may be shown once. Read-outs that look alike come from different tables or passages of the source.

What was measured:
5-LOX = target: T1, 5-LOX (Homo sapiens, UniProt P09917); assay: 5-LOX fluorescent assay (in vitro lipoxygenase inhibition); format: biochemical
T1 sequence (P09917 1-674): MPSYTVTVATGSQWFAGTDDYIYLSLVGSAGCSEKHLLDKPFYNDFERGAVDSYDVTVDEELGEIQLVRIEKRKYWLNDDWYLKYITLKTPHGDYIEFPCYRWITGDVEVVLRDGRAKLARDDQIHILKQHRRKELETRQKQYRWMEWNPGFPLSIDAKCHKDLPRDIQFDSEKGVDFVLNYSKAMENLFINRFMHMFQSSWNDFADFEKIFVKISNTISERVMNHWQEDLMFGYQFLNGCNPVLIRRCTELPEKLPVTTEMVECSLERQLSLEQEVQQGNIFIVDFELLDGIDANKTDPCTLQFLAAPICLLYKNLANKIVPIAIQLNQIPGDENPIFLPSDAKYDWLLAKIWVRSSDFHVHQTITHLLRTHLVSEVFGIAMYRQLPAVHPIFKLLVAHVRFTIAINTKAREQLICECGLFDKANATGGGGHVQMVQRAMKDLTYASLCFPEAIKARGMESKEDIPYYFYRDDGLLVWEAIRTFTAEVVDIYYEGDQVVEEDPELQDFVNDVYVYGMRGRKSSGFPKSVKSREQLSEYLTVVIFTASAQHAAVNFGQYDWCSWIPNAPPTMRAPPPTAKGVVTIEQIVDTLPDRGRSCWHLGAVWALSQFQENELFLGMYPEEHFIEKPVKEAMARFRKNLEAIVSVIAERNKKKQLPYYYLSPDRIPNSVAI
Protocol: 5-LOX FI assay Fluorescent Assay
The enzyme assay (100 μL) contained 50 mM Tris, pH 7.5, 0.1 mM EDTA, 0.3 mM CaCl2, 20 μM AA, 100 μM ATP, 1 μM DHR123, and recombinant 5-LOX cell lysate (0.5 μL/100 μL). Inhibitors (dissolved in DMSO) were plated at 1 μL into 96-well assay microplates followed by a 40 μL addition of a solution containing 5-LOX enzyme. Enzyme was pre-incubated with compounds for 15 mins. The assay was initiated by the addition of a 40 μL substrate solution containing AA and ATP, and 20 μL addition of a solution containing DHR123. […] Percent inhibition was calculated for each compound dose for IC50 curve fitting using 4 Parameter Logistic Model or Sigmoidal Dose-Response Model.

12-LOX = target: T2, 12-LOX (Homo sapiens, UniProt P18054); assay: 12-LOX fluorescent assay (in vitro lipoxygenase inhibition); format: biochemical
T2 sequence (P18054 1-663): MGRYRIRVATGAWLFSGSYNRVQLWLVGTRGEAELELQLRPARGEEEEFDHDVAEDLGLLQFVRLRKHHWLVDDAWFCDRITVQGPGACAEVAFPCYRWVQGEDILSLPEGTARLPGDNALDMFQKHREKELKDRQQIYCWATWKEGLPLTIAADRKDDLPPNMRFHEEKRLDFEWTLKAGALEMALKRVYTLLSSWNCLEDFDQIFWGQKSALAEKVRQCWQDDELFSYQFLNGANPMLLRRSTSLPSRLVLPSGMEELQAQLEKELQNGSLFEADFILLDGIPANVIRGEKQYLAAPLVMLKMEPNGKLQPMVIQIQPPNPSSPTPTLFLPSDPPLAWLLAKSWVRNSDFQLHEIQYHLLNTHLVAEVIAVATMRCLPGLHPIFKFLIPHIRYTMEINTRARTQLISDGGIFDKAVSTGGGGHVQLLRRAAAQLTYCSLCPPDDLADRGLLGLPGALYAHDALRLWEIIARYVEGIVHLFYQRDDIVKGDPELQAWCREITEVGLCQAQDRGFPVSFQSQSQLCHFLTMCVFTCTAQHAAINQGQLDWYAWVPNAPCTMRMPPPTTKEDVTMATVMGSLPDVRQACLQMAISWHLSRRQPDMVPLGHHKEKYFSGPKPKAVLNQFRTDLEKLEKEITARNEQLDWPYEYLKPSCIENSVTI
Protocol: 12-LOX/15-LOX Fluorescent Assay
The enzyme assay (100 ul) contained 50 mM Tris, pH 7.5, 0.05% Tween-20, 20 μM AA/LA, 1 μM DHR123, and 100 nM recombinant 12-LOX enzyme/50 nM recombinant 15-LOX enzyme. Inhibitors (dissolved in DMSO) were plated at 1 μL into 96-well assay microplates followed by a 40 μL addition of a solution containing 12-LOX/15-LOX enzyme. Enzyme was pre-incubated with compounds for 15 mins. The assay was initiated by the addition of a 40 μL substrate solution containing AA/LA, and 20μL addition of a solution containing DHR123. […] Percent inhibition was calculated for each compound dose for IC50 curve fitting using 4 Parameter Logistic Model or Sigmoidal Dose-Response Model.

[1] = recombinant 5-LOX cell lysate, 20 μM AA, DHR123 fluorescence, several values in a cell = repeat determinations, read-out: IC50 (μM) values for in vitro lipoxygenase inhibition, 5-LOX
[2] = 100 nM recombinant 12-LOX, 20 μM AA, DHR123 fluorescence, several values in a cell = repeat determinations, read-out: IC50 (μM) values for in vitro lipoxygenase inhibition, 12-LOX

Structure (SMILES)	IC50 (5-LOX; [1])	IC50 (12-LOX; [2])	IC50 (12-LOX)	IC50 (5-LOX)
Fc1ccc(Nc2ccc(NCCn3cncn3)c(-c3ccccc3)c2)c(Cl)c1 [SS20308-0165-01, N^2-(2-(1H-1,2,4-triazol-1-yl)ethyl)-N^5-(2-chloro-4-fluorophenyl)biphenyl-2,5-diamine]	0.03 µM and 0.23 µM	–	0.08 µM and 0.06 µM	–
c1ccc(Nc2ccc(-c3cccc4c3NCC4)c(NCCn3cncn3)c2)cc1 [SS20308-0166-01, N^3-(2-(1H-1,2,4-triazol-1-yl)ethyl)-4-(indolin-7-yl)-N^1-phenylbenzene-1,3-diamine]	0.14 µM	0.07 µM	–	–
CN(C)CCCc1c(Nc2ccccc2)cccc1-c1cccc2c1NCC2 [SS20308-0172-01, 2-(3-(dimethylamino)propyl)-3-(indolin-7-yl)-N-phenylaniline]	0.23 µM	0.36 µM	–	–
c1ccc(Nc2cnc(-c3ccccc3)c(NCCn3cncn3)c2)cc1 [SS20308-0173-01, N^3-(2-(1H-1,2,4-triazol-1-yl)ethyl)-N^5,2-diphenylpyridine-3,5-diamine]	2.22 µM	1.09 µM	–	–
c1ccc(Nc2ccc(-c3ccccc3)c(NCCn3cncn3)n2)cc1 [SS20308-0175-01, N^2-(2-(1H-1,2,4-triazol-1-yl)ethyl)-N^6,3-diphenylpyridine-2,6-diamine]	0.32 µM	0.26 µM	–	–
Cn1cncc1-c1ccc(Nc2ccccc2)cc1NCCn1cncn1 [SS20308-0177-01, N^3-(2-(1H-1,2,4-triazol-1-yl)ethyl)-4-(1-methyl-1H-imidazol-5-yl)-N^1-phenylbenzene-1,3-diamine]	1.45 µM	0.72 µM	–	–
c1ccc(Nc2ccc(-c3ccccc3)c(NCCCn3cncn3)c2)cc1 [SS20308-0178-01, N^2-(3-(1H-1,2,4-triazol-1-yl)propyl)-N^4-phenylbiphenyl-2,4-diamine]	–	–	0.09 µM and 0.11 µM and 0.07 µM and 0.14 µM	150 nM and 210 nM (2×) and 90 nM
Fc1ccc(Nc2ccc(-c3ccc(Cl)cc3)c(NCCn3cncn3)c2)cc1 [SS20308-0181-01, N^2-(2-(1H-1,2,4-triazol-1-yl)ethyl)-4′-chloro-N^4-(4-fluorophenyl)biphenyl-2,4-diamine]	0.16 µM	0.16 µM	–	–
CN(C)CC1(CNc2cc(Nc3ccc(F)cc3)ccc2-c2ccccc2)COC1 [SS20308-0184-01, N^2-((3-((dimethylamino)methyl)oxetan-3-yl)methyl)-N^4-(4-fluorophenyl)biphenyl-2,4-diamine]	0.16 µM	0.18 µM	–	–
c1ccc(Nc2ccc(-c3ccn[nH]3)c(NCCn3cncn3)c2)cc1 [SS20308-0189-01, N^3-(2-(1H-1,2,4-triazol-1-yl)ethyl)-N^1-phenyl-4-(1H-pyrazol-5-yl)benzene-1,3-diamine]	0.17 µM and 0.28 µM	0.08 µM and 0.15 µM	–	–
Cn1nccc1-c1ccc(Nc2ccccc2)cc1NCCn1cncn1 [SS20308-0190-01, N^3-(2-(1H-1,2,4-triazol-1-yl)ethyl)-4-(1-methyl-1H-pyrazol-5-yl)-N^1-phenylbenzene-1,3-diamine]	1.35 µM	0.93 µM	–	–
Cn1cc(-c2ccc(Nc3ccccc3)cc2NCCn2cncn2)cn1 [SS20308-0191-01, N^3-(2-(1H-1,2,4-triazol-1-yl)ethyl)-4-(1-methyl-1H-pyrazol-4-yl)-N^1-phenylbenzene-1,3-diamine]	4.18 µM	–	1.96 µM	–
Cc1noc(C)c1-c1ccc(Nc2ccccc2)cc1NCCn1cncn1 [SS20308-0192-01, N^3-(2-(1H-1,2,4-triazol-1-yl)ethyl)-4-(3,5-dimethylisoxazol-4-yl)-N^1-phenylbenzene-1,3-diamine]	0.83 µM	0.59 µM	–	–

Now from value to compound, other results behind:

IC50 (5-LOX; [1])	IC50 (12-LOX; [2])	Structure (SMILES)	IC50 (12-LOX)	IC50 (5-LOX)
0.28 µM	0.14 µM	c1ccc(Nc2ccc(-c3cccs3)c(NCCn3cncn3)c2)cc1 [SS20308-0193-01, N^3-(2-(1H-1,2,4-triazol-1-yl)ethyl)-N^1-phenyl-4-(thiophen-2-yl)benzene-1,3-diamine]	–	–
0.19 µM	0.13 µM	N#Cc1ccc(-c2ccc(Nc3ccccc3)cc2NCCn2cncn2)s1 [SS20308-0194-01, 5-(2-(2-(1H-1,2,4-triazol-1-yl)ethylamino)-4-(phenylamino)phenyl)thiophene-2-carbonitrile]	–	–
0.76 µM	0.36 µM	c1ccc(Nc2ccc(C3CCCO3)c(NCCn3cncn3)c2)cc1 (centres unmarked) [SS20308-0195-01, N^3-(2-(1H-1,2,4-triazol-1-yl)ethyl)-N^1-phenyl-4-(tetrahydrofuran-2-yl)benzene-1,3-diamine]	–	–
0.25 µM	0.32 µM	CN(C)CCCc1ccc(Nc2ccccc2Cl)c(Nc2ccccc2Cl)c1 [SS20308-0198-01, N^1,N^2-bis(2-chlorophenyl)-4-(3-(dimethylamino)propyl)benzene-1,2-diamine]	–	–
0.68 µM	0.51 µM	CN(C)CCCc1cc(Nc2ccc(F)cc2Cl)c(F)cc1Nc1ccc(F)cc1Cl [SS20308-0199-01, N^1,N^4-bis(2-chloro-4-fluorophenyl)-2-(3-(dimethylamino)propyl)-5-fluorobenzene-1,4-diamine]	–	–
0.4 µM	0.17 µM	c1ccc(-c2ccc(NC3CCCCC3)cc2NCCn2cncn2)cc1 [SS20308-0200-01, N^2-(2-(1H-1,2,4-triazol-1-yl)ethyl)-N^4-cyclohexylbiphenyl-2,4-diamine]	–	–
0.19 µM	0.05 µM	Fc1ccc(Nc2ccc3c(c2)N(CCn2cncn2)CC3)cc1 [SS20308-0201-01, 1-(2-(1H-1,2,4-triazol-1-yl)ethyl)-N-(4-fluorophenyl)indolin-6-amine]	–	–
0.08 µM and 0.07 µM	0.04 µM and 0.03 µM	Fc1ccc(CNc2ccc(NCCn3cncn3)c(-c3cccc4c3NCC4)c2)cc1 [SS20308-0211-01, N^1-(2-(1H-1,2,4-triazol-1-yl)ethyl)-N^4-(4-fluorobenzyl)-2-(indolin-7-yl)benzene-1,4-diamine]	–	–
2.93 µM	1.61 µM	c1ccc(CNc2cnc(NCCn3cncn3)c(-c3ccccc3)c2)cc1 [SS20308-0212-01, N^2-(2-(1H-1,2,4-triazol-1-yl)ethyl)-N^5-benzyl-3-phenylpyridine-2,5-diamine]	–	–
0.61 µM	0.08 µM	c1ccc(CNc2cc(-c3ccccc3)c(NCCn3cncn3)cn2)cc1 [SS20308-0213-01, N^5-(2-(1H-1,2,4-triazol-1-yl)ethyl)-N^2-benzyl-4-phenylpyridine-2,5-diamine]	–	–
0.16 µM	0.05 µM	c1ccc(CNc2ccc(NCCn3cncn3)c(-c3ccccc3)n2)cc1 [SS20308-0214-01, N^5-(2-(1H-1,2,4-triazol-1-yl)ethyl)-N^2-benzyl-6-phenylpyridine-2,5-diamine]	–	–
0.07 µM and 0.09 µM	0.04 µM and 0.03 µM	c1ccc(CNc2ccc(NCCn3cncn3)c(-c3ccncc3)c2)cc1 [SS20308-0215-01, N^1-(2-(1H-1,2,4-triazol-1-yl)ethyl)-N^4-benzyl-2-(pyridin-4-yl)benzene-1,4-diamine]	–	–
